Series [1] concerns MCF-7 cells. The series is described as follows: MTT cytotoxicity assay. To be noted: MTT, 48 h of compound exposure. It is filed as cell-based, human. As for the experimental part: (§1) The cytotoxic activity of the compounds was determined by MTT reduction assay as described. Compounds were diluted in Milli-Q water to obtain 1 mmol/L stock solutions. Appropriate aliquots of these solutions were diluted in the corresponding cell culture medium to obtain the final working concentrations. Aliquots of 5000 1BR3G cells, 6000 MCF-7, 6000 PC-3 cells, 10 000 CAPAN-1 cells, 4000 MCF 10A cells, 4000 HMLE cells or 4000 CCD-18Co cells were seeded in 96-well plates, 24 h prior to the treatments. Hematological cell lines were seeded at 400 000 cells/mL. Cells were treated with the corresponding compound at concentrations ranging from 0 to 100 μmol/L for 48 h. Three replicates for each compound were used. The IC50 was established for each compound by standard non-linear regression and curve fitting using GraphPad Prism (Graph Pad software Inc., La Jolla, CA, USA).
Background: Tetrazolium dyes change colour on reduction, which living cells bring about.

The test system of series [2] is CAPAN-1 cells. The series is described as follows: MTT cytotoxicity assay. It is filed as cell-based, human. The settings on record: MTT, 48 h of compound exposure. As for the experimental part:
as §1

Another series concerns PC-3. In words: MTT cytotoxicity assay. It is filed as cell-based. The settings on record: Homo sapiens, 48 h of treatment. On the procedure: as §1
The next series relates to CCD-18Co. In words: MTT cytotoxicity assay. The format is cell-based. The settings on record: Homo sapiens, 48 h of treatment, non malignant cells. As for the experimental part: as §1
The subject of a further series is Z-138. The series is described as follows: MTT cytotoxicity assay. The format is cell-based. The settings on record: Homo sapiens, 48 h of treatment. On the procedure:
as §1

A further series concerns HMLE. The series is described as follows: MTT cytotoxicity assay. The format is cell-based. The settings on record: Homo sapiens, 48 h of treatment, non malignant cells. On the procedure:
as §1

The next series concerns 1BR3G. The series is described as follows: MTT cytotoxicity assay. To be noted: Homo sapiens, 48 h of treatment, non malignant cells. It is filed as cell-based. On the procedure:
as §1

The next series concerns JURKAT. In words: MTT cytotoxicity assay. The format is cell-based. The settings on record: Homo sapiens, 48 h of treatment. As for the experimental part: as §1
Another series relates to MCF-10A. The series is described as follows: MTT cytotoxicity assay. The format is cell-based. To be noted: Homo sapiens, 48 h of treatment, non malignant cells. On the procedure:
as §1

The next series can be described thus: Hemolytic assay. The format is cell-based. The settings on record: human, erythrocyte suspension of fresh human blood (5% vol/vol). As for the experimental part: The hemolytic activity of the compounds at 100 μmol/L was evaluated by determining hemoglobin release from erythrocyte suspensions of fresh human blood (5% vol/vol) as described.
Series [3] concerns MCF-7 cells. The series is described as follows: Cellular labile iron pool with calcein-AM. It is filed as cell-based, human. To be noted: MCF-7.
In series [4] the test system is CAPAN-1 cells. The series is described as follows: Cellular labile iron pool with calcein-AM. The format is cell-based, human. To be noted: CAPAN-1, 100 μmol/L, 24 h. As for the experimental part: The cellular labile iron pool was determined with calcein-AM. CAPAN-1 cells (125 000 cells/ well) were seeded in 24-well plates and incubated for 24 h. Then, cells were treated for 24 h with 10 μmol/L of compound 1, 2 or 5 at 37°C. In some experiments, cells were incubated for 2 h with 100 μmol/L of DFO or 100 μmol/L FeCl2. Cells exposed to the vehicle alone were used as a control. After treatments, cells were washed with PBS and incubated with calcein-AM (0.25 μmol/L) for 30 min at 37°C in the dark. Subsequently, cells were washed and collected with trypsin and the geometric mean fluorescence intensity of 10 000 cells was determined by flow cytometry as described.

In a further series the test system is MCF-7 and CAPAN-1 cells. In words: MTT cell viability with modulators (QVD-Oph, FeCl2). It is filed as cell-based, human. The settings on record: FeCl2 alone at 1, 10 or 100 μmol/L, 48 h. On the procedure:
as §1
Fig 4 Induction of caspase activity. (A) The indicated cell lines were treated for 48 h with compounds 1, 2 and 5 (10 μmol/L) and caspase 3/7 activity was measured as indicated in Materials and Methods. Bar charts show the fold increase in caspase activity relative to untreated (control) and represent the mean±SD from three independent experiments performed in triplicate. (B) MCF-7 and CAPAN-1 cells were treated for 48 h with the ligands (10 μM) in the absence (-) or presence (+) of the pan-caspase inhibitor QVD-Oph (20 μM) and cell viability was measured with the MTT assay. […] Data represents the mean ± SD of 3 independent experiments performed in triplicate. The differences between absence and presence of QVD-OPh treatment were statistically significant at * p<0.05, **p<0.01 and ***p<0.001.
Fig 9 Effects of iron on 1, 2 and 5 activity. (A) Effect of 2 h FeCl2 pre-incubation (FeCl2 p) (dotted line) or co-incubation (FeCl2 c) (dashed line) at 1, 10 or 100 μmol/L on the cytotoxicity of 2 (5 μmol/L) in MCF-7 and CAPAN-1 cells. FeCl2 alone was included as a control (solid line). Cell viability was determined after 48 h of treatment by the MTT assay. (B) Effect of FeCl2 pre-incubation or co-incubation (100 μmol/L) on the cytotoxicity of 2 (5 μmol/L), 1 and 5 (10 μmol/L). Cells treated with the ligands alone were included as a reference (control). (C) ROS induction in CAPAN-1 cells after 24 h treatment with 2 (10 μmol/L) alone, together with FeCl2 or after FeCl2 pre-incubation (at 100 μmol/L). Results are presented as a percentage of untreated cells and represent mean±SD of 3 independent experiments. *p < 0.05 versus control cells.

For series [5], the system named is CS-like HMLER-shEcad cells. In words: MTT cytotoxicity assay in cancer stem-like cells. It is filed as cell-based, human. The settings on record: 48 h. On the procedure:
as §1
(§2) Fig 2 Cell viability assay. (A) Cytotoxic activity of compounds 1, 2, and 5 against cancer cells. The indicated cell lines were treated for 48 h with ligands (10 μmol/L) and cell viability was measured with the MTT assay. Data represents the percentage of viable cells relative to untreated cells (control). (B) Cytotoxicity of doxorubicin and compounds 1, 2 and 5 against CS-like cells. CS-like HMLER-shEcad cells and non-CS-like HMLER isogenic parental cells were treated for 48 h with graded concentrations of doxorubicin, 1, 2 and 5. Cell viability was measured with the MTT assay. For each treatment, the percentage of viable cells relative to untreated cells is indicated. Data represents the mean±SD of 3 independent experiments performed in triplicate.

A further series has as its system HMLER cells. The series is described as follows: MTT cytotoxicity assay in non-CS-like parental cells. It is filed as cell-based. To be noted: Homo sapiens, 48 h. On the procedure:
as §1, §2

Molecules are shown by their SMILES. Counter-ions that a name gives are not always drawn.

Regarding `N.N.[Cl][Pt][Cl]` [Cisplatin, reference compound], the figures for the IC50 in the series with MCF-7 cells [1] and in the series with CAPAN-1 cells [2] were 2.4 ± 0.4 µM and 2.2 ± 0.3 µM, respectively.
`CN(Cc1ccccn1)[C@H]1CCCC[C@@H]1N(C)Cc1ccccn1` [Compound 3]: the concentration for half-maximal inhibition (IC50) (as a rule, the concentration needed to halve the response being measured) in the series with PC-3 was 35 ± 4.2 µM; in the series with CCD-18Co, greater than 100 µM; in the series on Z-138 it was 16.5 ± 1.4 µM; in the series on HMLE, 32.5 ± 3.8 µM; in the series on 1BR3G, 45 ± 1 µM; with JURKAT it was greater than 100 µM. For the same molecule, the 50% inhibitory concentration (IC50) in the series with MCF-10A is 39.7 ± 2.9 µM; in the series on MCF-7 cells [1] (Homo sapiens, MCF7) it was 40.6 ± 2.5 µM; with CAPAN-1 cells [2] (Homo sapiens, CAPAN-1), 27.7 ± 2.9 µM. The hemolysis at 100 µM in the series “Hemolytic assay” came to 0%.
For the molecule `CN1CCN(C)CCN(Cc2ccccn2)CC1` [Compound 4], the IC50 was greater than 100 µM in the series with PC-3; greater than 100 µM in the series on CCD-18Co; 23.1 ± 1.8 µM in the series with Z-138; 47.7 ± 4.5 µM in the series with HMLE; 78 ± 8.5 µM in the series on 1BR3G; greater than 100 µM in the series with JURKAT. The concentration for half-maximal inhibition (IC50) in the series on MCF-10A was greater than 100 µM; with MCF-7 cells [1] (Homo sapiens, MCF7), 88.5 ± 0.7 µM; in the series on CAPAN-1 cells [2] (Homo sapiens, CAPAN-1), 32 ± 10.4 µM. For the same molecule, the hemolysis at 100 µM in the series “Hemolytic assay” was 0%.
On to `CC(=O)N(O)CCCCCNC(=O)CCC(=O)N(O)CCCCCNC(=O)CCC(=O)N(O)CCCCCN` [DFO, deferoxaminemesylate salt, reference compound], for which, in the series with MCF-7 cells [3], the “calcein fluorescence increase after DFO incubation” value was 132.1±16.5%.
In the case of `[Cl][Fe][Cl]` [FeCl2, reference compound], in the series on CAPAN-1 cells [4], the “calcein fluorescence intensity, % of control cells” value is 74.2±15.5%. Also, the “effect on cell viability” value in the series with MCF-7 and CAPAN-1 cells was “did not affect the viability”.
For the molecule `COc1cccc2c1C(=O)c1c(O)c3c(c(O)c1C2=O)C[C@@](O)(C(=O)CO)C[C@@H]3O[C@H]1C[C@H](N)[C@H](O)[C@H](C)O1` [doxorubicin, reference compound], the “fold increase in IC50, HMLER-shECad vs HMLER” value in [5] is ~ 3 fold. Besides, the 50% inhibitory concentration (IC50) in series [5] (Homo sapiens) worked out at 0.3 ± 0.02 µM; in the series on HMLER cells, 0.1 ± 0.02 µM.

The values are drawn from publication PMC4569415, “Pro-Oxidant Activity of Amine-Pyridine-Based Iron Complexes Efficiently Kills Cancer and Cancer Stem-Like Cells” (PLoS ONE, 2015).
